Test results: US20220249525A1, “Fatty Acid Compounds for Prevention and Treatment of Neurodegenerative Disorders” (T OMEGA AS, priority 2019, published 2022)

Columns and labels:
[1] = test system: HeLaNRF1/c4 reporter cells; assay: Mitochondria respiration assay (OCR) in HeLaNRF1/c4 reporter cells after 5 days; assay type: cell-based
Description: Mitochondria function was analyzed by measuring oxygen consumption rate (OCR) by extracellular flux analysis in a Seahorse XFe96 instrument (Agilent Seahorse XF Technologies). The measurements were performed in DADA basic media without phenol red, supplemented with L-glutamine (2 mM), pyruvate (2 mM), and sodium chloride, NaCl (32 mM) (Sigma-Aldrich). Respiratory rates were measured following sequential additions of glucose (10 mM), oligomycin, carbonyl cyanide m-chlorophenyl hydrazine (CCCP) and a mixture of rotenone (1 μM) and antimycin A (1 μM). Before carrying out the measurements for each cell model, optimizations were done for; cell number, CCCP, and oligomycin concentrations. […] The OCR measured initially (before any additions) represented the rate ‘basal respiration.’ The addition of ATP synthase inhibitor oligomycin provided oxygen consumption independent of ATP production (‘leak activity’). Maximal respiration (also referred to as ‘respiratory capacity’) was measured upon addition of the uncoupler CCCP. […] To evaluate the effects of the different treatments, the respiratory rates from compound-treated wells were normalized to protein content, and calculated as percentage of the average respiratory rate of the DMSO-treated control wells. […]

[2] = test system: HeLaNRF1/c4 reporter cells; assay: NRF1-regulated mitochondrial biogenesis, GFP reporter by flow cytometry; assay type: cell-based; settings: 5 days; AICAR 250 μM or 500 μM, resveratrol 25 uM, test compounds 30 μM and 60 μM
Description: The HeLaNRF1/c4 reporter cells were employed to investigate effects of the modified fatty acids on NRF1-regulated mitochondrial biogenesis. The cells (250,000) were seeded in T75 flasks and incubated for 3 hours to allow attachment. The compounds were dissolved in DMSO and diluted in culture medium to provide the final concentration. DMSO at a concentration equivalent to the highest compound concentration was added to control cultures. Resveratrol and AICAR were used as positive controls. Resveratrol has not previously been tested in this reporter model, but we found it relevant to include it for purposes of experimental and mechanistic comparisons. After 3 days of treatment the media was replaced with fresh media containing the corresponding compound. On day 5, the cells were harvested and the cultures split into three fractions: One fraction was used for detection of mitoGFP expression by flow cytometry, to assess effects on NRF-1 regulated mitochondrial biogenesis. Flow cytometry analysis was performed as previously described. Another fraction was used for extraction of RNA and subsequent gene expression analysis using quantitative PCR (see below). The last fraction was employed to investigate effects on mitochondrial respiratory function by extracellular flux analysis (described above). The experiment was replicated three times. […]

[3] = test system: HeLaNRF1/c4 reporter cells; assay: Gene expression (qPCR) in HeLaNRF1/c4 reporter cells; assay type: cell-based; settings: long-term treatment, vs control
Description: The HeLaNRF1/c4 reporter cells were employed to investigate effects of the modified fatty acids on NRF1-regulated mitochondrial biogenesis. The cells (250,000) were seeded in T75 flasks and incubated for 3 hours to allow attachment. The compounds were dissolved in DMSO and diluted in culture medium to provide the final concentration. DMSO at a concentration equivalent to the highest compound concentration was added to control cultures. Resveratrol and AICAR were used as positive controls. Resveratrol has not previously been tested in this reporter model, but we found it relevant to include it for purposes of experimental and mechanistic comparisons. After 3 days of treatment the media was replaced with fresh media containing the corresponding compound. On day 5, the cells were harvested and the cultures split into three fractions: One fraction was used for detection of mitoGFP expression by flow cytometry, to assess effects on NRF-1 regulated mitochondrial biogenesis. Flow cytometry analysis was performed as previously described. Another fraction was used for extraction of RNA and subsequent gene expression analysis using quantitative PCR (see below). The last fraction was employed to investigate effects on mitochondrial respiratory function by extracellular flux analysis (described above). The experiment was replicated three times.
Total RNA was extracted from harvested cells (RNAeasy kit Qiagen, Hilden, Germany). The RNA content was quantified on Nanodrop 1000 Spectrophotometer (Thermo Scientific). From 1 μg total RNA, cDNA was synthesized using High-Capacity Reverse Transcription Kit (Applied Biosystems, Carlsbad, Calif., US). Gene quantification was done using TaqMan probes for gene expression assays (Applied Biosystems). Probes used were: PGC1α (PPARG coactivator 1α), Hs00173304_m1; HIF1α (hypoxia inducible factor 1α), Hs00153153_m1; PDK1 (pyruvate dehydrogenase kinase 1), Hs01561847_m1; PDK4, (pyruvate dehydrogenase kinase 4), Hs01037712_m1; SIRT4 (sirtuin 4) Hs01015516_g1; ACOX1 (acyl-CoA oxidase 1) Hs01074241_m1; as reference genes, we used; Eukaryotic 18S rRNA Hs99999901_s1; actin beta Hs99999903_m1. Fold change was calculated as geometric mean of ΔΔCt of the two reference genes.

[4] = test system: HCC827 cells; assay: Mitochondria respiration assay (OCR, extracellular flux) in HCC827 cells; assay type: cell-based; settings: compared to control
Description: (§1) Non-small cell lung cancer cells, HCC827 (ATCC) were cultured in RPMI-1640 Glutamax medium (Sigma-Aldrich St. Louis, Mo., USA), under conventional culture conditions. Media was supplemented with 10% Fetal Bovine Serum (FBS), 1% glutamine and 1% streptomycin/penicillin (Sigma-Aldrich). HeLaNRF1/c4 reporter cells were cultured in Dulbecco's Modified Eagle's Medium (DMEM) supplemented with 10% FBS, 2 mM L-Glutamine, 100 u/ml penicillin/streptomycin (Sigma-Aldrich,). Incubation was done at 37° C. in 5% CO2.
Mitochondria function was analyzed by measuring oxygen consumption rate (OCR) by extracellular flux analysis in a Seahorse XFe96 instrument (Agilent Seahorse XF Technologies). The measurements were performed in DADA basic media without phenol red, supplemented with L-glutamine (2 mM), pyruvate (2 mM), and sodium chloride, NaCl (32 mM) (Sigma-Aldrich). Respiratory rates were measured following sequential additions of glucose (10 mM), oligomycin, carbonyl cyanide m-chlorophenyl hydrazine (CCCP) and a mixture of rotenone (1 μM) and antimycin A (1 μM). Before carrying out the measurements for each cell model, optimizations were done for; cell number, CCCP, and oligomycin concentrations. For the HCC 827 cell model optimal conditions were; 30,000 cells/well, 0.5 μM CCCP, and 3 μM Oligomycin; and in HeLaNRF1/c4 reporter cell model; 20,000 cells/well, 1 μM CCCP and 3 μM Oligomycin. The OCR measured initially (before any additions) represented the rate ‘basal respiration.’ The addition of ATP synthase inhibitor oligomycin provided oxygen consumption independent of ATP production (‘leak activity’). Maximal respiration (also referred to as ‘respiratory capacity’) was measured upon addition of the uncoupler CCCP. […] After the extracellular flux analysis the analysis plates were washed with Phosphate Buffered Saline (PBS) and frozen at −80° C. The BCA assay (Pierce BCA protein assay kit, Thermo Fisher Scientific, Waltham, Mass. USA) was employed to measure the protein content in the wells. To evaluate the effects of the different treatments, the respiratory rates from compound-treated wells were normalized to protein content, and calculated as percentage of the average respiratory rate of the DMSO-treated control wells. All treatments were performed with 6-8 replicate wells.

[5] = test system: HeLaNRF1/c4 reporter cells; assay: Resazurin conversion assay in HeLaNRF1/c4 reporter cells; assay type: cell-based; settings: test compounds 30 μM and 60 μM, long treatment
Description: as §1
Cell viability/proliferation was determined by the resazurin conversion assay. A total of 4000 cells were seeded in each of the 96-well plates in 100 μl of medium. After 3 hours of incubation, 100 μl of fresh medium with respective concentration of the desired compound or controls were added. Resazurin solution (Sigma-Aldrich) was added (10%, v/v in PBS) after 1 or 3 day treatment, followed by 3 hour incubation at 37° C. and 5% CO2. Resazurin fluorescence (excitation, 540 nm; emission, 590 nm) was measured and measurements were corrected for background signals. […] Relative viability was calculated from percent fluorescence relative to DMSO-treated control wells.
In order to investigate if some of the compounds induce metabolic adaptations involving mitochondrial biogenesis, we employed the HeLaNRF1/c4 reporter cells in which activation of the transcription factor NRF1 triggers expression of GFP. Since adaptations of mitochondrial biogenesis are known to require some days to develop, we used a relatively low dosage (30 μM and 60 μM) of the compounds, to allow longer treatment period compared to the previous short term experiments.

[6] = Mildronate-induced fatty liver, liver triacylglycerol; assay type: in vivo; settings: C57BL/6 mice; Mildronate 550 mg/kg body weight in low-fat diet; 3 weeks
Description: C57BL/6 mice were divided in 4 groups of 10 mice and fed a control low-fat diet, low-fat diets with TTA (720 mg/kg body weight), Mildronate (550 mg/kg body weight) or a combination of these two treatments for 3 weeks (n=10). At sacrifice, liver samples were collected, lipids were extracted, and triacylglycerol (TAG) measured on the Hitachi 917 system (Roche Diagnostics, GmbH, Mannheim, Germany) using a kit from Roche Diagnostics.

[7] = test system: SH-SY5Y cells; assay: GC-MS analysis of TTA in cell medium and SH-SY5Y cells; assay type: in vitro ADME
Description: The GC-MS analysis was performed on treated SH-SY5Y cells and its medium prior and after treatment of TTA complexed with FBS. The technical work and analysis were performed by Pavol Bohov.
Total medium and cellular FA composition were analyzed by […] after preparation of FA methyl esters from total lipids by heating with a 1:1 mixture of methanol and toluene at 90° C. for 1 hour using sulfuric acid as a catalyst. Gas chromatograph Trace GC Ultra (Finnigan, USA) was equipped with a programmable temperature vaporization injector, flame-ionization detector, AS 2000 autosampler and with a fused silica capillary column coated with dimethylpolysiloxane stationary phase (J & W Scientific, USA). Hydrogen was used as a carrier gas. The column temperature was programmed from 110° C. to 310° C. with a gradient of 2.5° C./min.
The GC signal was acquired and evaluated with Chromeleon software version 6.80 (Dionex, USA). Peaks were identified by means of known FA standards and by means of mass spectra, obtained by GC-MS analysis (GCQ MS Detector, Finnigan, USA) on the same column.
The quantification of the FAs was based on the areas of the chromatographic peaks which were measured electronically. Subsequently, the areas were converted to weight units based on the known amount of the internal standard C21:0 which had been added to the sample. The response of the analytical procedure was determined with a mixture of pure standards (Sigma-Aldrich, USA; Supelco, USA; Larodan Fine Chemicals, Sweden).

[8] = inside SH-SY5Y cells after 24 hours

In the case of NC(=O)c1ncn([C@@H]2O[C@H](CO)[C@@H](O)[C@H]2O)c1N [AICAR, 5-aminoimidazole-4-carboxamide-1-β-D-ribofuranoside, reference compound], the basal respiratory rate [1] is reported as “without affecting the basal respiratory rate”, the “uncoupled respiratory capacity (CCCP)” value [1] is reported as “only increased in the AICAR-treated cells” and the “GFP intensity (NRF1 reporter)” value [2] is reported as “significant increase”. For the same compound, the PGC1α expression [3] was “reduced PGC1α expression”, the “basal respiratory rate (OCR)” value [4] was “little or no effect” and the resazurin conversion [5] was “moderate reduction”.

For C[N+](C)(C)NCCC(=O)[O-] [Mildronate, 3-(2,2,2-trimethylhydrazinium)propionate], the “increase in liver triacylglycerol (TAG)” value [6] was 7 fold.

For CCCCCCCC=CCCCCCSCC(=O)O [TTA: 1n-8], the “Medium 24 h, weight percent of total FA” value ([7]; cell medium after 24 hours) was “(0.18%)”, the “Medium 24 h, concentration” value ([7]; cell medium after 24 hours incubation with SH-SY5Y cells) was 0.53 µM and the “Cells 24 h, concentration” value [7, 8] was 0.017 µM. For the same compound, the “Cells 24 h, weight percent of total FA” value [7, 8] was “(0.19%)”.
